What was measured:
[1] = test system: panel of cancer cell lines; assay: BrdU assay, whole panel; assay type: cell-based, human; details: cell line not named, highest value
Procedure: Since the inhibition of human DNA topoisomerase II should result in decreased proliferation of cancer cells, compounds 1-3 were tested using BrdU assay against a panel of cancer cell lines, including MCF-7 (estrogen-dependent human breast cancer cells), MDA-MB-231 (estrogen-independent human breast cancer cells), SCC-25 (squamous cell carcinoma of the tongue), FaDu (squamous cell carcinoma of the pharynx), A549 (human lung carcinoma), AGS (human gastric adenocarcinoma), LS-180, HT-29 (colon cancer cell lines), T98G (glioblastoma cells), and A375 (melanoma cells). Human normal skin fibroblasts (CRL-2072) were also used as a reference cell line. The BrdU assay allows quantification of cell proliferation since it measures incorporation of thymidine analogue (BrdU) during DNA replication. […] However, although the antiproliferative effect caused by 3 was mostly weaker (except for A549 and A375) than observed for 1, but the former compound was also characterised by lower toxicity against human normal cells. It results in selectivity index approaching 125 and 57, when it comes to lung cancer (A549) and melanoma cells (A375), respectively. […]

[2] = molecular target: T1, human DNA topoisomerase IIα (Homo sapiens, UniProt P11388); assay: Stabilisation of covalent DNA-enzyme cleavage complex (Topoisomerase II Drug Screening Kit); assay type: biochemical; details: 50 µM (Figure S4), linear DNA cleavage intermediate
T1 construct: purchased Inspiralis Ltd, Norwich, UK
T1 sequence (P11388 whole entry): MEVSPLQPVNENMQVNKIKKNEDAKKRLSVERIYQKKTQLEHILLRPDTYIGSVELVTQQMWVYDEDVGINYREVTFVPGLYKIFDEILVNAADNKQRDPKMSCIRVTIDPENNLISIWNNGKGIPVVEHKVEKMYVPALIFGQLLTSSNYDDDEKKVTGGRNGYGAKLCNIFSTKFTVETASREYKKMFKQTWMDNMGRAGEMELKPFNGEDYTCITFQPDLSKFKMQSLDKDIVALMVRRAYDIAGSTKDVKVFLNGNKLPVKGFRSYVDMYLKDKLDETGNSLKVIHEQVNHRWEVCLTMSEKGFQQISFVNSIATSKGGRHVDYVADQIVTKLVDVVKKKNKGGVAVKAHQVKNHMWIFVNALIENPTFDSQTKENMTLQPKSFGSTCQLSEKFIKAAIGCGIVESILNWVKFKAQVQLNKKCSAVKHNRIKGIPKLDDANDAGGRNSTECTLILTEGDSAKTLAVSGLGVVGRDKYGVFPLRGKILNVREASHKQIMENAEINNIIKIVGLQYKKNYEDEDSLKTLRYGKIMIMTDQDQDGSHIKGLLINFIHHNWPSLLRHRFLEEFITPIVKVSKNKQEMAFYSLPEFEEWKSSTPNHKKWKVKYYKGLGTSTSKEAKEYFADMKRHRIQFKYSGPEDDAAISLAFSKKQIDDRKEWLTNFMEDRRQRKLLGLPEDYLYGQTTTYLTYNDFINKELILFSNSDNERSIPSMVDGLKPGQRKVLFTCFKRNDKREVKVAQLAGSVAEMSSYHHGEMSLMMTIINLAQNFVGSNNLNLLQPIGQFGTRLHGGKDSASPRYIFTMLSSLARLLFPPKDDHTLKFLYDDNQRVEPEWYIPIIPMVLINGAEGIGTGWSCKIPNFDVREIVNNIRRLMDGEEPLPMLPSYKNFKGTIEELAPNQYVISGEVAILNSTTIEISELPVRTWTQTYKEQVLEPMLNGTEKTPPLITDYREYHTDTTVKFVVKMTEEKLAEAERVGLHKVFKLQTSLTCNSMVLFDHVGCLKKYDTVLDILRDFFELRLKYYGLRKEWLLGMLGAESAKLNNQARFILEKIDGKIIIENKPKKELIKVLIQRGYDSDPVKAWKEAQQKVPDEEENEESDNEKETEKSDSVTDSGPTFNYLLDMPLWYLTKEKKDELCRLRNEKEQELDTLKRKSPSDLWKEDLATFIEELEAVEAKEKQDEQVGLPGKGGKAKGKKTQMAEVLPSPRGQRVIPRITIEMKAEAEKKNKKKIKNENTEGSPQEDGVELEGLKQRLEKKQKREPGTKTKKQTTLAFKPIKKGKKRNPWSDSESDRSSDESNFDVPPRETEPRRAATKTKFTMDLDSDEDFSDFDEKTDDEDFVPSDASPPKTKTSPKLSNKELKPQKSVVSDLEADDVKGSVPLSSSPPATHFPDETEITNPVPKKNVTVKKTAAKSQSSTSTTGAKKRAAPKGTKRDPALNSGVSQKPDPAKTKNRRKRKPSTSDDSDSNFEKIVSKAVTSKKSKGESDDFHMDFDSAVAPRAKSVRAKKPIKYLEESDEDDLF
Procedure: As relaxation of supercoiled DNA (scDNA) is one of numerous functions of topoisomerase IIα, so the appearance/disappearance of relaxed DNA bands during agarose gel electrophoresis can be used to identify compounds that inhibit the enzyme.
Determination of the inhibitory effect of compounds 1-10 against human topoisomerase Iiα was performed using Human Topoisomerase II Relaxation Assay (Inspiralis Ltd, Norwich, UK) and Topoisomerase II Drug Screening Kit (TopoGEN Inc., Buena Vista, CO, USA) following the manufacturer’s instructions. Briefly, the increased concentrations of the compounds were mixed with the reaction mixture, incubated according to the protocol and, after reaction termination, the samples were analysed by electrophoresis using 1% agarose gel containing […] of ethidium bromide in Tris-Acetate-EDTA (TAE) buffer. Visualisation of the bands was performed using an enhanced chemiluminescence system (Syngene G:BOX Chemi XT4, Cambridge, UK). For the quantitative determination of topoisomerase II inhibition, images were densitometrically scanned.
topoII + compound 4 (100 µM); lane 7: scDNA + topoII + compound 5 (100 µM); lane 8: scDNA + topoII
+ compound 6 (100µM); lane 9: scDNA + topoII + compound 7 (100 µM); lane 10: scDNA + topoII +
compound 8 (100µM); lane 11: scDNA + topoII + compound 9 (100µM); lane 12: scDNA + topoII +
Figure S4. […] Lane 1: scDNA; […]

Compound | antiproliferative activity, fold higher than that of etoposide [1] [fold] | stabilisation of the covalent DNA-enzyme cleavage complex [2]
CC(C)c1cccc(C(C)C)c1NC(=S)NNC(=O)Cc1cccc2ccccc12 [Compound 1, 4-(2,6-Diisopropylphenyl)-1-[(naphth-1-yl)acetyl]thiosemicarbazide] | ≤ 90 | –
COc1cc([C@@H]2c3cc4c(cc3[C@@H](O[C@@H]3O[C@@H]5CO[C@@H](C)O[C@H]5[C@H](O)[C@H]3O)[C@H]3COC(=O)[C@H]23)OCO4)cc(OC)c1O [Etoposide, etoposide, reference compound] | – | able to stabilise the covalent DNA-enzyme cleavage complex

— publication PMC9648375, “Identification of the first-in-class dual inhibitors of human DNA topoisomerase IIα and indoleamine-2,3-dioxygenase 1 (IDO 1) with strong anticancer properties” (Journal of Enzyme Inhibition and Medicinal Chemistry, 2022)
